We go through 13 molecules from PubChem BioAssay AID1845206 (Molecular Pharmacology Branch, DTP, NCI, 2023).

Values joined by “and” are separate entries in the source; they are usually repeats but may differ in a detail not shown here. Identical values can stand only once. Active and inactive are the calls of the source. The calls were made as follows: active = viability on the fitted dose curve at most 10% of control; inactive = the rest.

This test relates to NCI-H1618 multicellular tumor spheroid viability. Put plainly: Anticancer human tumor NCI-H1618 cell line growth inhibition.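 As to all read-outs here: spheroids exposed to agents for 7 days.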 Conditions: for viability, T/C: stronger effect = lower value. The text has this: Multicellular complex tumor spheroid response to DNA repair inhibitors in combination with DNA-damaging drugs
This study explores the anticancer activities of DNA-damaging drugs and inhibitors of DNA damage repair, both as single agents and in combinations. Complex tumor spheroids comprised of malignant cells, endothelial cells and mesenchymal stem cells served as an in vitro model for human solid tumors. This model system incorporates physiologically relevant features and patient-derived or established malignant cell lines with clinically relevant genetic alterations from many tumor types. Twenty-six patient-derived or established malignant cell lines were evaluated representing sarcoma, melanoma, small cell lung cancer (SCLC), non-small cell lung cancer (NSCLC), as well as bladder, ovarian and pancreatic cancers. The concentration ranges selected for each drug and investigational agent were based upon clinically achievable concentrations if the clinical Cmax of the agent was known.
Compounds. The drugs and compounds olaparib (NSC753686), talazoparib (NSC767125), berzosertib (NSC777718), elimusertib (NSC800525), nedisertib (NSC802822), VX-984 (NSC792969), AZD-1390 (NSC803789), temozolomide (NSC362856), topotecan (NSC609699), trabectedin (NSC813783), staurosporine (NSC755774), and gemcitabine (NSC613327) were obtained from the National Cancer Institute (NCI) Developmental Therapeutics Program Chemical Repository. The FDA-approved anticancer drug set is available from the Developmental Therapeutics Program at https://dtp.cancer.gov/organization/dscb/obtaining/available_plates.htm. […] The stock solutions were prepared in dimethyl sulfoxide (DMSO, Sigma-Aldrich, St. Louis, MO, cat. D2650) at 400-fold the tested concentration and stored at -70 degrees C. Prior to their use, the stock solutions were diluted in fresh medium and the final DMSO concentration in the assay was 0.25% (v/v). All drugs and investigational agents were tested over a range starting from a high concentration at or near the clinical Cmax and decreasing in half-log increments. If the clinical Cmax for an agent had not been determined, the highest concentration tested was 10 microM.
Cell Lines. The patient-derived cancer cell (PDC) lines: 156681-154-R-J1-PDC, 283228-195-R-J1-PDC, 287954-098-R-J1-PDC, 292921-168-R-J2-PDC, 349418-098-R-PDC, 425362-245-T-J1-PDC, 556581-035-R-J1-PDC, and BL0293-F563-PDC were received from the NCI Patient-Derived Models Repository (PDMR, https://pdmr.cancer.gov). The established cell lines HS-SY-2 (RRID:CVCL_8719), MPNST, and SYO-1 (RRID:CVCL_7146) were obtained from the Sloan Kettering Institute. The alveolar soft parts sarcoma cell line ASPS-1 (RRID:CVCL_S738) was established at the NCI and grown from internal seed stocks. The following established cell lines were purchased from the American Type Culture Collection (ATCC, Manassas, VA): G-401 (ATCC, cat. CRL-1441, RRID:CVCL_0270), SW982 (ATCC, cat. HTB-93, RRID:CVCL_1734), VA-ES-BJ (ATCC, cat. CRL-2138, RRID:CVCL_1785), NCI-H719 (ATCC, cat. CRL-5837, RRID:CVCL_1582), NCI-H196 (ATCC, cat. CRL-5823, RRID:CVCL_1509), NCI-H841 (ATCC, cat. CRL-5845, RRID:CVCL_1595), NCI-H1618 (ATCC, cat. CRL-5879, RRID:CVCL_1480), NCI-H1876 (ATCC, cat. CRL-5902, RRID:CVCL_1503), DMS 114 (ATCC, cat. CRL-2066; RRID:CVCL_1174), NCI-H211 (ATCC, cat. CRL-5824; RRID:CVCL_1529), and SW 1271 (ATCC, cat. CRL-2177, RRID:CVCL_1716). The small cell lung cancer cell line COR-L88 was purchased from Sigma-Aldrich (cat. 92031917-1VL, RRID:CVCL_1141). The non-small cell lung cancer cell lines NCI-H226 (RRID:CVCL_1544) and NCI-H322M (RRID:CVCL_1557) were established at the NCI and grown from internal seed stocks. Pooled donor human umbilical vein endothelial cells (HUVEC, Lonza, cat. CC-2519) and human mesenchymal stem cells (hMSC, Lonza, cat. PT-2501) were purchased from Lonza (Walkersville, MD).
Cell Culture. All cells were maintained in an incubator at 37 degrees C and 5% CO2 with 95% humidity. […]

As for `CC(C)n1c(=O)n(C)c2cnc3cc(F)c(-c4ccc(OCCCN5CCCCC5)nc4)cc3c21`, the viability, T/C was 92.6% and 97.3% and 82.8% (compound 0.0316 µM); 93.1% and 105% (compound 0.1 µM); 85.2% and 96.6% and 100% (compound 0.316 µM); 80.8% and 86.8% (compound 1 µM); 75.5% and 87.7% and 75.1% (compound 3.16 µM); 58.1% and 89.4% and 54.3% (compound 10 µM). In addition, the outcome by setting is: (compound 0.1 µM) “inactive”; (compound 1 µM) “inactive”. Moreover, where the note is “curve of compound”, the IC50 is more than 10000 nM.

As to `CC1COCCN1c1cc(-c2ccnn2C)c2ccnc(-c3ccn[nH]3)c2n1` (stereo not given), the viability, T/C reads like this: (compound 0.0316 µM) 66.6% and 84.9% and 71.4%; (compound 0.1 µM) 36.7% and 35.1% and 32.9%; (compound 0.316 µM) 5.46% and 8.95% and 25.5%; (compound 1 µM) 1.99% and 2.55% and 7.57%; (compound 3.16 µM) 1.12% and 1.22% and 2.57%; (compound 10 µM) 2.74% and 1.68% and 1.22%. Besides, the half-inhibitory concentration (IC50) (curve of compound) is 60 nM and 70.9 nM and 64.3 nM.

In the case of `CC[C@@]1(O)C(=O)OCc2c1cc1n(c2=O)Cc2cc3c(CN(C)C)c(O)ccc3nc2-1`, the viability, T/C (compound 0.3 µM) is 1.94% [middle of 9 runs]. For the setting “compound alone, run of 11/07/2019”, the IC50 is 9.37 nM [middle of 5 runs].

In the case of `CNCc1ccc(-c2cc(-c3nc(-c4ccc(S(=O)(=O)C(C)C)cc4)cnc3N)on2)cc1`, the viability, T/C is, setting by setting: (compound 0.00949 µM) 97.2% and 99.1% and 104%; (compound 0.03 µM) 96.2% and 99.4% and 112%; (compound 0.0949 µM) 25.7% and 95.3% and 102%; (compound 0.3 µM) 25.8% and 85.3% and 90%; (compound 0.949 µM) 18.8% and 21.5% and 11.7%; (compound 3 µM) 20.3% and 0.47% and 4.41%. Besides, the IC50 (curve of compound) was 63.8 nM and 567 nM and 540 nM.

Turning to `COc1cc(C)[nH]c(=O)c1CN1CCc2c(Cl)cc(C(OC)C3COC3)c(Cl)c2C1=O` (stereo not given), the viability, T/C runs as follows: (compound 0.0316 µM) 83.9% and 102% and 58.1%; (compound 0.1 µM) 77.3% and 49.4%; (compound 0.316 µM) 67.3% and 73.7%; (compound 1 µM) 76.1% and 83% and 91.4%; (compound 3.16 µM) 69% and 82.6% and 93.8%; (compound 10 µM) 65.9% and 85.6% and 65.3%. For the same molecule, the outcome was “inactive” (compound 0.1 µM) and “inactive” (compound 0.316 µM). Further, the IC50 (curve of compound) is more than 10000 nM.

Take `COc1cc2c(cc1O)CCNC21CSC2c3c(OC(C)=O)c(C)c4c(c3C(COC1=O)N1C(O)C3Cc5cc(C)c(OC)c(O)c5C(C21)N3C)OCO4` (stereo not given): the viability, T/C by setting is: (compound 30 pM) 95.9% [middle of 10 runs]; (compound 0.0003 µM) 5.95% [middle of 10 runs]; (compound 0.000949 µM) 3.52% [middle of 10 runs]; (compound 0.003 µM) 2.99% [middle of 10 runs]. Where the note is “compound alone, run of 12/16/2019”, the IC50 was 0.124 nM [middle of 9 runs].

As to `COc1ccc([C@@H](O)c2cc(-c3ncnc4cc(N5CCOCC5)ccc34)c(F)cc2Cl)nn1`, the viability, T/C by setting is: (compound 0.0316 µM) 84% and 103% and 101%; (compound 0.1 µM) 109% and 97.9% and 84.5%; (compound 0.316 µM) 108% and 103% and 83.4%; (compound 1 µM) 98.4% and 98.8% and 76%; (compound 3.16 µM) 84.1% and 83% and 83.7%; (compound 10 µM) 22.8% and 78.7% and 32.8%. Besides, for the setting “curve of compound”, the IC50 was 6000 nM and > 10000 nM and 6750 nM.

With `Cc1cc(C)c(CNC(=O)c2cc(-c3ccc(CN4CCOCC4)cc3)cc3c2cnn3C2CCCC2)c(=O)[nH]1`, the viability, T/C (compound 0.0316 µM) is 90.5% and 97.2% and 101%; the viability, T/C (compound 0.1 µM) is 103% and 101% and 107%; the viability, T/C (compound 0.316 µM) was 89.7% and 98.2% and 101%; the viability, T/C (compound 1 µM) was 94.6% and 94.8% and 99%; the viability, T/C (compound 3.16 µM) is 89% and 95.3% and 95.9%; the viability, T/C (compound 10 µM) is 76.2% and 95.1% and 88.9%. The IC50 (curve of compound) was more than 10000 nM.

In the case of `Cc1sc2c(c1C)C(c1ccc(Cl)cc1)=NC(CC(=O)Nc1ccc(O)cc1)c1nnc(C)n1-2` (stereo not given), the viability, T/C was 109% (2×) and 110% (compound 0.00949 µM); 105% and 108% and 115% (compound 0.03 µM); 100% (compound 0.0949 µM); 102% and 95.7% and 56.4% (compound 0.3 µM); 91.1% and 80.5% and 47% (compound 0.949 µM); 33.8% and 35.4% and 16.8% (compound 3 µM). Besides, where the note is “compound 0.0949 µM”, the result was inactive. The IC50 (curve of compound) was 2160 nM and 2060 nM and 567 nM.

Regarding `Cn1ncnc1[C@H]1c2n[nH]c(=O)c3cc(F)cc(c23)N[C@@H]1c1ccc(F)cc1`, the viability, T/C (compound 0.00949 µM) is 92.2% and 26.7% and 101%; the viability, T/C (compound 0.03 µM) was 91.8% and 23.5% and 84.8%; the viability, T/C (compound 0.0949 µM) was 88.2% and 22.8% and 79.8%; the viability, T/C (compound 0.3 µM) was 13.2% and 5.31% and 10.7%; the viability, T/C (compound 0.949 µM) was 1.9% and 23.1% and 3.83%; the viability, T/C (compound 3 µM) is 1.81% and 2.3% and 3.2%.

In the case of `Cn1nnc2c(C(N)=O)ncn2c1=O`, the viability, T/C is 19.8% [middle of 10 runs] (compound 3.16 µM), 5.8% [middle of 10 runs] (compound 10 µM) and 10.4% [middle of 10 runs] (compound 31.6 µM).

For the molecule `O=C(c1cc(Cc2n[nH]c(=O)c3ccccc23)ccc1F)N1CCN(C(=O)C2CC2)CC1`, the viability, T/C runs as follows: (compound 0.0949 µM) 98.1% and 105% and 94.9%; (compound 0.3 µM) 103% and 90.6%; (compound 0.949 µM) 83.7% and 96.2% and 98.8%; (compound 3 µM) 23.2% and 98.6% and 91%; (compound 9.49 µM) 23.5% and 56.3% and 34.1%; (compound 30 µM) 25% and 3.78% and 9.4%. Besides, the result (compound 0.3 µM) was inactive. For the setting “curve of compound”, the half-maximal inhibitory concentration (IC50) was 1820 nM and 10900 nM and 6890 nM.

For `[2H]c1nc(C)nc([2H])c1-c1cc(NC[C@@H](C)c2cccc3c(C(=O)NC)ccnc23)ncn1`, the viability, T/C is 97% and 100% and 12.9% (compound 0.0316 µM); 98.5% and 98% and 8.24% (compound 0.1 µM); 101% and 117% (compound 0.316 µM); 96.4% and 101% and 142% (compound 1 µM); 88.6% and 94% and 106% (compound 3.16 µM); 97.2% and 102% and 91.8% (compound 10 µM). The outcome (compound 0.316 µM) was inactive.
